We go through 3 compounds from US4659825A, “Isomeric O-phosphonylmethyl derivatives of enantiomeric and racemic 9-(2,3-dihydroxypropyl)adenine” (Ceskoslovenska akademie, priority 1983, dated 1987).

The subject of the test is Pyrrhocoris apterus L. Put plainly: Ovicidal activity (chemosterilizing): inhibition of egg hatching in the first and second egg batch after oral administration to adults of both sexes. The settings on record: drinking water. The test is classed as in vivo. The method, then: The test animals were freshly emerged adults of Pyrrhocoris apterus L. and the tested compounds were administered as solutions in drinking water. The concentration 1 mg.ml^-1 corresponded to the dose of 1 mg/g/24 h. Each test was performed on a group of 10 males and 10 females and evaluated according to toxicity and hatchability of the eggs of the first and the second egg batches.

Each structure is given as a SMILES string.

For `Nc1ncnc2c1ncn2CC(O)COCP(=O)(O)O` (racemic) [3'-isomer], the “Inhibition of egg hatching in the first and second egg batch (% inhibition, related to control eggs)” value (0.1 mg.ml^-1 of water) is 61%.

On to `Nc1ncnc2c1ncn2CC(CO)OCP(=O)(O)O` (racemic) [2'-isomer], for which the “Inhibition of egg hatching in the first and second egg batch (% inhibition, related to control eggs)” value (0.1 mg.ml^-1 of water) was determined as 27%.

Regarding `Nc1ncnc2c1ncn2CC(O)CO` (racemic) [compound 3, (RS)-9-(2,3-dihydroxypropyl)adenine], the “Inhibition of egg hatching in the first and second egg batch (% inhibition, related to control eggs)” value is, setting by setting: (0.01 mg.ml^-1 of water) 0%; (0.05 mg.ml^-1 of water) 10%; (0.1 mg.ml^-1 of water) 37%; (1.0 mg.ml^-1 of water (1 mg.ml^-1 corresponded to the dose of 1 mg/g/24 h)) 100%.
